Data: ChEMBL document CHEMBL5143608, “Peptide-based long-acting co-agonists of GLP-1 and cholecystokinin 1 receptors as novel anti-diabesity agents” (Eur J Med Chem, 2022)
Calls of active or inactive are those of the source. The rule behind the calls is not given here. *1 amine or outer side, *2 acyl side, *3 side chain or, on linkers, in order; H or OH if unused. Where a SMILES comes first, the peptide text is derived from it. Side-chain parts run from the residue outwards. [ ]: non-standard residue; d: D form. The star is where a group is joined. γGlu = O=C(O)[C@H](CCC(=O)[*:2])N[*:1]; Palmitoyl = CCCCCCCCCCCCCCCC(=O)*; Aib = CC(C)(N)C(=O)O

Assays:
Mus musculus [1] = assay: Anti-diabesity activity against high fat diet-induced DIO C57BL/6 mouse model assessed as decrease in body weight at 25 nmol/kg, sc administered for 2 weeks; format: functional; details: C57BL/6, 336 h, time 14 day
Mus musculus [2] = assay: Anti-diabesity activity against high fat diet-induced DIO C57BL/6 mouse model assessed as reduction in food intake at 25 nmol/kg, sc administered for 2 weeks; format: functional, organism-based; details: time 14.0 day
Mus musculus [3] = assay: Anti-diabesity activity against high fat diet-induced DIO C57BL/6 mouse model assessed as reduction in fat mass accumulation at 25 nmol/kg, sc administered for 2 weeks and measured on day 15 by NMR analysis; format: functional, organism-based; details: time 15.0 day
Mus musculus [4] = assay: Hypoglycemic activity in ICR mouse assessed as improvement in glucose tolerance at 25 nmol/kg, ip administered 30 min before oral glucose administration and measured upto 120 mins by OGTT; format: functional, organism-based
Mus musculus [5] = assay: Anorectic activity in ICR mouse assessed as decrease in food intake at 25 nmol/kg, ip and measured after 9 hrs; format: functional, organism-based
Mus musculus [6] = assay: Anorectic activity in ICR mouse assessed as decrease in food intake at 25 nmol/kg, ip and measured after 24 hrs; format: functional, organism-based

Question: What does the source list for `CCCCCCCCCCCCCCCC(=O)N[C@@H](CCC(=O)NCCCC[C@H](NC(=O)[C@H](C)NC(=O)[C@H](C)NC(=O)[C@H](CCC(=O)O)NC(=O)[C@H](CCC(=O)O)NC(=O)[C@H](CCC(=O)O)NC(=O)[C@H](CC(C)C)NC(=O)[C@@H](NC(=O)[C@H](CCC(=O)O)NC(=O)[C@@H](NC(=O)[C@@H](NC(=O)[C@H](CC(=O)O)NC(=O)[C@H](CC(N)=O)NC(=O)[C@@H](NC(=O)[C@H](Cc1ccc(O)cc1)NC(=O)[C@@H](NC(=O)CNC(=O)[C@H](CCC(=O)O)NC(=O)C(C)(C)NC(=O)[C@@H](N)Cc1cnc[nH]1)[C@@H](C)O)[C@@H](C)O)C(C)C)[C@@H](C)O)[C@@H](C)O)C(=O)N[C@@H](CCC(=O)O)C(=O)N[C@@H](Cc1ccccc1)C(=O)N[C@H](C(=O)N[C@@H](CCC(=O)O)C(=O)N[C@@H](Cc1c[nH]c2ccccc12)C(=O)N[C@@H](CC(C)C)C(=O)N[C@H](C(=O)N[C@@H](CCCCN)C(=O)NCC(=O)N[C@@H](CCCCN)C(N)=O)[C@@H](C)CC)[C@@H](C)CC)C(=O)O` (H-H[Aib]EGTYTNDVTETLEEEAAK([γGlu-Palmitoyl])EFIEWLIKGK-NH2)?
Answer: inhibition in vivo at 0.025 µmol/kg (Mus musculus [1]): 12.1%; Activity (Mus musculus [2]): Active; Activity (Mus musculus [3]): Active; Activity (Mus musculus [4]): Active; Activity (Mus musculus [5]): Active; Activity (Mus musculus [6]): Active

Question: For `CCCCCCCCCCCCCCCC(=O)N[C@@H](CCC(=O)NCCCC[C@H](NC(=O)[C@H](C)NC(=O)[C@H](C)NC(=O)[C@H](CCC(N)=O)NC(=O)CNC(=O)[C@H](CCC(=O)O)NC(=O)[C@H](CC(C)C)NC(=O)[C@H](Cc1ccc(O)cc1)NC(=O)[C@H](CO)NC(=O)[C@H](CO)NC(=O)[C@@H](NC(=O)[C@H](CC(=O)O)NC(=O)[C@H](CO)NC(=O)[C@@H](NC(=O)[C@H](Cc1ccccc1)NC(=O)[C@@H](NC(=O)CNC(=O)[C@H](CCC(=O)O)NC(=O)[C@H](C)NC(=O)[C@@H](N)Cc1cnc[nH]1)[C@@H](C)O)[C@@H](C)O)C(C)C)C(=O)N[C@@H](CCC(=O)O)C(=O)N[C@@H](Cc1ccccc1)C(=O)N[C@H](C(=O)N[C@@H](C)C(=O)N[C@@H](Cc1c[nH]c2ccccc12)C(=O)N[C@@H](CC(C)C)C(=O)N[C@H](C(=O)N[C@@H](CCCNC(=N)N)C(=O)NCC(=O)N[C@@H](CCCNC(=N)N)C(=O)NCC(=O)O)C(C)C)[C@@H](C)CC)C(=O)O` [LIRAGLUTIDE], which inhibition in vivo at 0.025 µmol/kg (Mus musculus [1]) is on record?
Answer: 9.8%
